From US8552053B2, “7-substituted indirubin-3′oximes and their applications” (Centre National de la Recherche Scientifique, priority 2005, dated 2013)
Where two headings read alike, the source gives them in different places.

Legend:
[1] = tested on: 5 L (AhR+/+) and BP8 (AhR−/−) cells; assay: Cell cycle distribution of 5 L and BP8 cells (FACS); assay type: cell-based, mouse; details: 10 μM, 24 h
[2] = tested on: SH-SY5Y cells; assay: SH-SY5Y cell death, LDH release assay; assay type: cell-based, human; details: IO, 5BIO, 6BIO, 7BIO compared (FIG. 3B)
Experimental: In addition, cell death was estimated 48 h after the addition of each indirubin (25 μM) using the LDH release assay. As MTS reduction is occasionally observed under conditions different from cell death, an independent cell death evaluation procedure was used, the lactate dehydrogenase (LDH) release assay. This assay confirmed the induction of cell death by the indirubins of the invention, despite their overall lack of effects on CDKs and GSK-3.

[3] = tested on: IMR-5, IMR-32, HL-60 and Jurkat cells; assay: Viability of IMR-5, IMR-32, HL-60 and Jurkat cells, MTS; assay type: cell-based, human; details: 24 h
Experimental: FIG. 15. […] Every point is the mean±s.e. of three independent experiments with six independent measurements per experiment. […] SH-SY5Y, IMR-5 and IMR-32 human neuroblastoma cell lines were grown in DMEM medium from (Biowhittaker) plus 2 mM L-glutamine from Eurobio (Courtaboeuf, France) or DMEM already supplemented with 2 mM L-glutamine (Invitrogen, Barcelona, Spain), plus antibiotics and a 10% volume of FCS (Invitrogen, Cergy Pontoise, France or Barcelona, Spain). SH-SY5Y cell lines permanently transfected with pcDNA3/Bcl-2, pcDNA3/Bcl-XL and empty pcDNA3 vectors were grown like their untransfected counterparts. However, Geneticin (G-418) selection was maintained in the growing cultures before the terminal experiments (Ribas and Boix, 2004). […] HL-60 and Jurkat cells were grown in RPMI 1640 medium with 10% FCS and antibiotics from Invitrogen (Barcelona, Spain).

[4] = tested on: MDA-MB-231 cells; assay: MDA-MB-231 cell proliferation and cell cycle distribution; assay type: cell-based, human
Experimental: MDA-MB-231 cells (derived from hormone-independent breast cancer) were cultured in DMEM supplemented with 10% FCS. For experiments, these cells were seeded in 24-well boxes or in 35 mm Petri dishes at appropriate densities (4.10^4 cells per well for cell growth experiments; 10^5 cells per dish for cell cycle analysis) and exposed to indirubins as indicated.

[5] = tested on: p53; assay: p53 expression, Western blotting; details: SH-SY5Y cells, 12.5 μM
[6] = tested on: cytochome C release; assay: Cytochrome C release from mitochondria; details: 12.5 μM, 10 h
[7] = tested on: effector caspase activity (DEVDase); assay: Caspase (DEVDase) assay in SH-SY5Y cells; assay type: cell-based, human; details: 24 h dose-response; time course at 25 μM
Experimental: The value of control untreated cells is placed at time 0. DEVDase activity was measured as arbitrary fluorescence units. Every point is the mean±s.e. of at least three independent determinations. (B). […] Every point is the mean±s.e. of at least three independent determinations.
(§1) The measurement of caspase activity is based on determining the fluorescence released from the AcDEVDafc synthetic substrate after its direct addition to the culture medium, detergent lysis, and incubation at 37°. This method is devised to be applied to 96 multiwell plates. It allows kinetic determinations of caspase activation and the characterization of multiple drugs simultaneously. (Ribas et al., 2005).

[8] = tested on: SH-SY5Y cells transfected with pcDNA3/Bcl-2 or pcDNA3/Bcl-XL; assay: Viability of Bcl-2 / Bcl-XL overexpressing SH-SY5Y cells, MTS; assay type: cell-based, human; details: 7BIO 25 μM, STS 2 μM; 9 and 24 h
[9] = tested on: effector caspases (DEVDase activity); assay: Effector caspase activation in IMR-5, IMR-32, HL-60 and Jurkat cells; assay type: cell-based, human; details: 25 μM, 24 h
Experimental: FIG. 15. […] Every point is the mean±s.e. of three independent experiments with six independent measurements per experiment. […] Bar value is the mean±s.e. of 6 independent determinations.
as §1

[10] = target: CDK5/p25 (Homo sapiens, UniProt Q00535); assay: CDK5/p25 kinase assay; assay type: biochemical, mammalian
[11] = tested on: AhR-dependent expression of p27^Kip1; assay: p27Kip1 expression in 5 L and BP8 hepatoma cells (Western blotting); assay type: cell-based, mouse; details: 10 μM, 24 h
Experimental: Actin Western blotting was used as a loading control. […] Average±s.e. of three determinations. […] Karlsruhe, Institute of Genetics, 76021 Karlsruhe, Germany). […] 6.8, 1 mM EDTA, 2% SDS.

[12] = tested on: SH-SY5Y cells; assay: SH-SY5Y cell survival, MTS reduction assay; assay type: cell-based, human
Experimental: SH-SY5Y, IMR-5 and IMR-32 human neuroblastoma cell lines were grown in DMEM medium from (Biowhittaker) plus 2 mM L-glutamine from Eurobio (Courtaboeuf, France) or DMEM already supplemented with 2 mM L-glutamine (Invitrogen, Barcelona, Spain), plus antibiotics and a 10% volume of FCS (Invitrogen, Cergy Pontoise, France or Barcelona, Spain). SH-SY5Y cell lines permanently transfected with pcDNA3/Bcl-2, pcDNA3/Bcl-XL and empty pcDNA3 vectors were grown like their untransfected counterparts. However, Geneticin (G-418) selection was maintained in the growing cultures before the terminal experiments (Ribas and Boix, 2004). In order to induce differentiation, SH-SY5Y cells were cultured on collagen coated plates and treated with 10 μM RA for five days.
(§2) Cell death characterization based on nuclear morphology was assessed by double staining with 0.05 μg/ml bisBenzimide and 25 μg/ml propidium iodide. Cell viability was determined by means of the MTS method. Both procedures have been previously described in detail (Ribas and Boix, 2004). For evaluation of DNA laddering, cell DNA was extracted and electrophoresed in 1.5% agarose gels to evidence the internucleosomal fragmentation typical of apoptosis.
The effects of each indirubin was tested, at a 25 μM final concentration, on the survival of the neuroblastoma SH-SY5Y cell line after 24 h or 48 h exposure.

[13] = tested on: SH-SY5Y cells; assay: SH-SY5Y cell survival, MTS reduction assay; assay type: cell-based, human; remark: listed apart in the source
[14] = tested on: 5 L (AhR+/+) and BP8 (AhR−/−) cells; details: 24 h
[15] = tested on: SH-SY5Y cells; assay: DNA laddering (internucleosomal fragmentation); assay type: cell-based, human; details: 25 μM, 24 h
Experimental: as §2

[16] = tested on: SH-SY5Y cells; assay: Nuclear morphology, bisBenzimide and propidium iodide staining; assay type: cell-based, human; details: 24 h; 10 or 25 μM
Experimental: Following double staining of DNA with BisBenzimide and propidium iodide, cells were examined by fluorescence microscopy. Thick arrows: apoptosis (nuclear fragmentation); thin arrows: secondary necrosis; arrow heads: pycnotic nuclei. Scale bar: 20 μm. Cell death characterization based on nuclear morphology was assessed by double staining with 0.05 μg/ml bisBenzimide and 25 μg/ml propidium iodide. Cell viability was determined by means of the MTS method. Both procedures have been previously described in detail (Ribas and Boix, 2004).

[17] = tested on: wild-type HCT-116 and HCT-116 sub-clones deprived of p53; assay: Survival of wild-type and p53-deprived HCT-116 cells, MTS; assay type: cell-based, human; details: 24 h
Experimental: Average±s.e. of three determinations. HCT116 human adenocarcinoma cell line were obtained from Dr. Vogelstein (The Howard Hughes Medical Institute, Sidney Kimmel Comprehensive Cancer Center, The Johns Hopkins School of Medicine, Baltimore, Md. 21231, USA). HCT116 cells were cultured in McCoy's 5A (Biowhittaker) supplemented with antibiotics and 10% FCS. General culture conditions were an atmosphere of 5% CO2 and a temperature of 37° C. Culture dishes and other plastic disposable tools were supplied by Corning (Corning, N.Y., USA). Indirubin treatments were performed on exponentially growing cultures at the indicated time and concentrations. Control experiments were carried also using appropriate dilutions of DMSO.

[18] = tested on: SH-SY5Y cells differentiated by retinoic acid; assay: Viability of RA-differentiated versus proliferating SH-SY5Y cells, MTS; assay type: cell-based, human; details: 24 h; 7BIO 25 μM, STS 1 μM
[19] = tested on: p21^Cip1; assay: p21Cip1 expression, Western blotting; details: SH-SY5Y cells, 12.5 μM, 12 h

Chain of CDK5/p25 (Q00535 whole entry, species assumed): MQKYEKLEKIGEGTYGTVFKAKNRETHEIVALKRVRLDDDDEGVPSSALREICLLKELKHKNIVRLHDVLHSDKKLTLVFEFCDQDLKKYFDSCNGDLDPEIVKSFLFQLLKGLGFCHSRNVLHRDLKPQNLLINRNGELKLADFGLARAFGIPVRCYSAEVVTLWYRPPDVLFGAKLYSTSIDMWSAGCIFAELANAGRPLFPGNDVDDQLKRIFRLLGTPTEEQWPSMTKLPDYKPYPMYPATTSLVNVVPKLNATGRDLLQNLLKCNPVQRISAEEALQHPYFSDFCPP
Chain of CDK5/p25 (Q15078 99-307 partner limits assumed, species assumed): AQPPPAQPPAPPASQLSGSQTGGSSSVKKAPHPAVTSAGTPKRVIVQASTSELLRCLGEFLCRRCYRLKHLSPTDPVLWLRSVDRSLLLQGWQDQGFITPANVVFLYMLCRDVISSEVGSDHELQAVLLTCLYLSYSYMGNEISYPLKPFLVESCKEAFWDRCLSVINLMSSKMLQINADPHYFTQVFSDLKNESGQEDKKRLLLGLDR

(2′Z,3′E)-7-bromoindirubin-3′-oxime [7BIO]
cell cycle distribution of AhR−/− and AhR+/+ cells [1]: striking AhR-dependent accumulation in G0/G1
cell death (LDH release) [2]: most potent compound
induction of cell death [3]: induced cell death in the same range of concentrations
cell cycle distribution ([4]; 24 h, FACS): accumulation in G2/M and reduction of G0/G1
cell proliferation by direct counting ([4]; 48 h exposure): dose-dependent inhibition of cell proliferation
reversibility of the effect by removal of compound ([4]; medium replaced at 48 h): poorly if at all reversible
induction of p53 [5]: insignificant
release of cytochome C from mitochondria [6]: negligible release
activation of caspase activity [7]: remained at the level of control
protection by Bcl-2 / Bcl-XL overexpression [8]: neither Bcl-XL nor Bcl-2 overexpression provided any significant protection
effector caspase activation (DEVDase activity) [9]: fell consistently below the background
inhibitory activity on CDK5/p25 (in words) [10]: marginal inhibitory activity
inhibitory activity on CDK5/p25 (in words) ([10]; listed as 24): weak and gradually decreasing inhibitory activity
AhR-dependent expression of p27^Kip1 [11]: potently enhance
time required to induce 70% cell death ([12]; 25 μM (FIG. 7)): ≤ 12 h
time to almost complete cell death ([12]; 25 μM (FIG. 7)): ≤ 24 h
effect of Q-VD-Oph on induced cell death ([12]; 25 μM indirubin, 48 h, 10 μM Q-VD-OPh (FIG. 10)): no effect
cell death inducing activity, position 7 halogen / N1-methyl series (MTS) ([12]; 48 h (FIG. 4)): equipotent
sensitivity of cell death to the presence of the caspase inhibitor Q-VD-OPh ([13]; 20 μM Q-VD-OPh, MTS 43 h after addition (Table 5)): completely insensitive
concentration required to reduce cell survival (MTS reduction) ([13]; 48 h, IO, 5BIO, 6BIO, 7BIO compared (FIG. 3A)): most potent compound
dose-response curves of cell death in 5 L versus BP8 [14]: essentially the same
DNA laddering [15]: no ladder was observed
nuclear morphology / PI staining [16]: numerous large, unfragmented pycnotic nuclei
dose-response curves, wild-type versus p53-deprived HCT-116 [17]: essentially the same
effect of cell differentiation on induced cell death [18]: negligible effect
induction of p21^Cip1 overexpression [19]: negligible effects
